In patent publication US20230271949A1, “GLP-1R MODULATING COMPOUNDS” (ASCLETIS BIOSCIENCE CO., LTD., priority 2022, published 2023):

target: GLP-1R (Homo sapiens, UniProt P43220); assay: GLP-1R agonist cAMP stimulation assay (HTRF cAMP); format: cell-based; details: HEK293 cell line expressing GLP-1 target; HTRF cAMP agonist mode, 30 min at RT
Procedure: cAMP Detection Kit, Cisbio (Cat #62AM4PEJ)
The cell line was constructed by WuXi.
2. Methods • a) The compound source plate preparation: • The reference 7-37 was diluted from 500 nM, 4-fold, 10 points in DMSO using Bravo. The compounds were diluted from […], 3-fold, 10 points in DMSO using Bravo. • b) Transfer of compounds: • 1) Use Echo transfer 100 nL cpd to the OptiPlate-384 plate. • 2) Spin the plates at 1000 rpm for 5 sec. • c) Cell suspension preparation: • 1) Thaw 1 vial of GLP-1 cells rapidly in 37° C. water bath. • 2) Transfer cell suspension into 10 ml of HBSS in a 15 ml conical tube. • 3) Centrifuge cells at 1000 rpm for 5 min at room temperature to pellet cells • 4) Gently aspirate supernatant being careful not to aspirate cells. • 5) Flick pellet to loose cells and re-suspend the cell pellet in 10 ml HBSS. Use a sterile pipette to pipette up and down to dislodge clumps. • 6) Count cells for concentration and to determine cell viability on Vi-cell. • 7) Re-suspend the GLP-1 cells in assay buffer at a concentration of 1.0×E5/mL cells. • 8) Transfer 10 μL GLP-1 cells to OptiPlate-384 plate. • d) HTRF cAMP Assay for agonist: • 1) Incubate the plate at RT for 30 min before adding the detection reagent. • 2) Add 10 μL each of detection reagent using Electric Multiple Channel Pipette. • 3) Cover the 384 plate with TopSeal-A film and incubate for 60 minutes at room temperature. • Remove the TopSeal-A, read on EnVision.
Create a new log (Inhibitor) vs response—Variable slope mode in Prism5.0 software, substitute the standard curve concentration (x) and its corresponding 665/615 data (y) into the model, convert the standard curve concentration (abscissa) by x=log(x), and make the standard curve through the converted xy.
Transform the data of 665/615 in the whole plate into a column of data, substitute it into y in the table of standard curve concentration (x) and 665/615 data (y), copy the x (interpolatedx) corresponding to automatic conversion by the software into a table, convert it into cAMP level by the formula x=10^(x), and reset the data into 384 distribution.
% Activity=(cAMP level−LC)/(HC−LC)*100% • Z factor: 1-3*(STD_HC+[…])/(HC-LC) • Assay Window: HC/LC • LC: The average cAMP level of adding DMSO wells • HC: The average cAMP level of adding the top concentration of reference compounds wells.
Create a new […] in Prism5.0 software, substitute the sample concentration (x) and its corresponding % Activity data (y) into the model, convert the standard curve concentration (abscissa) to x=log(x), and make the sample curve through the converted xy.

Chain of GLP-1R (P43220 24-463): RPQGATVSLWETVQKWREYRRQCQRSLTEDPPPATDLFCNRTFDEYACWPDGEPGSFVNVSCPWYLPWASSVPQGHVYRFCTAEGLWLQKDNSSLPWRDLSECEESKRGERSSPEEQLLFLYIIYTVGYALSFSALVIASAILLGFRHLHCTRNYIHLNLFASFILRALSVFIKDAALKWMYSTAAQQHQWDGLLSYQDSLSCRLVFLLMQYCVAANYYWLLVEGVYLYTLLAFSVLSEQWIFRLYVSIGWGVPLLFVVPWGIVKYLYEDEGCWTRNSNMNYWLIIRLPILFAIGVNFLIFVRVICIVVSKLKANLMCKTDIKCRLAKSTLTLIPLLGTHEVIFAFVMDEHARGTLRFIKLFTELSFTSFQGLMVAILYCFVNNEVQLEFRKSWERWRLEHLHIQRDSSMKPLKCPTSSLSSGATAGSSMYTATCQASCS

| EC50 [nM] | Structure (SMILES) |
| --- | --- |
| 2.47 | O=C(CNC(=O)c1ccc2c(c1)nc(CN1CCC(c3cccc(OCc4ccc(Cl)cc4F)n3)CC1)n2C[C@@H]1CCO1)N[C@@H](CO)C(=O)O [Compound 49] |
| 34 | O=C(O)CNC(=O)c1ccc2c(c1)nc(CN1CCC(c3cccc(OCc4ccc(Cl)cc4F)n3)CC1)n2C[C@@H]1CCO1 [Compound 50] |
| 134 | O=C(N[C@@H](Cc1ccc(O)cc1)C(=O)O)c1ccc2c(c1)nc(CN1CCC(c3cccc(OCc4ccc(Cl)cc4F)n3)CC1)n2C[C@@H]1CCO1 [Compound 51] |
| 12.8 | NC(=O)C[C@H](NC(=O)c1ccc2c(c1)nc(CN1CCC(c3cccc(OCc4ccc(Cl)cc4F)n3)CC1)n2CC1CCO1)C(=O)O (some centres unmarked) [Compound 52] |
| 114 | O=C(N[C@@H](Cc1cnc[nH]1)C(=O)O)c1ccc2c(c1)nc(CN1CCC(c3cccc(OCc4ccc(Cl)cc4F)n3)CC1)n2C[C@@H]1CCO1 [Compound 53] |
| 79.7 | O=C(NCC(=O)N1CC[C@H](C(=O)O)C1)c1ccc2c(c1)nc(CN1CCC(c3cccc(OCc4ccc(Cl)cc4F)n3)CC1)n2C[C@@H]1CCO1 [Compound 54] |
| 1.83 | C[C@]12C[C@@H](C(=O)O)N(C(=O)CNC(=O)c3ccc4c(c3)nc(CN3CCC(c5cccc(OCc6ccc(Cl)cc6F)n5)CC3)n4C[C@@H]3CCO3)[C@@]1(C)C2 [Compound 55] |
| 0.97 | N#Cc1ccc(COc2cccc(C3CCN(Cc4nc5cc(C(=O)NCC(=O)N6C[C@@H](O)C[C@H]6C(=O)O)ccc5n4C[C@@H]4CCO4)CC3)n2)c(F)c1 [Compound 56] |
| 1.41 | C[C@H](NC(=O)c1ccc2c(c1)nc(CN1CCC(c3cccc(OCc4ccc(Cl)cc4F)n3)CC1)n2C[C@@H]1CCO1)C(=O)N1C[C@H](O)C[C@H]1C(=O)O [Compound 57] |
| 4.35 | CC1(C)C[C@@H](C(=O)O)N(C(=O)CNC(=O)c2ccc3c(c2)nc(CN2CCC(c4cccc(OCc5ccc(Cl)cc5F)n4)CC2)n3C[C@@H]2CCO2)C1 [Compound 58] |
| 7.2 | O=C(NCC(=O)N1C2CCC(C2)[C@H]1C(=O)O)c1ccc2c(c1)nc(CN1CCC(c3cccc(OCc4ccc(Cl)cc4F)n3)CC1)n2C[C@@H]1CCO1 (some centres unmarked) [Compound 59] |
| 22.3 | O=C(NCC(=O)N1CCC[C@H]1C(=O)O)c1ccc2c(c1)nc(CN1CCC(c3cccc(OCc4ccc(Cl)cc4F)n3)CC1)n2C[C@@H]1CCO1 [Compound 60] |
| 6.75 | O=C(NCC(=O)N1CC[C@H]1C(=O)O)c1ccc2c(c1)nc(CN1CCC(c3cccc(OCc4ccc(Cl)cc4F)n3)CC1)n2C[C@@H]1CCO1 [Compound 61] |
| 0.49 | COC(=O)[C@@H]1C[C@H](O)CN1C(=O)CNC(=O)c1ccc2c(c1)nc(CN1CCC(c3cccc(OCc4ccc(Cl)cc4F)n3)CC1)n2C[C@@H]1CCO1 [Compound 63] |
| 151 | COC(=O)[C@@H]1CC(F)(F)CN1C(=O)CNC(=O)c1ccc2c(c1)nc(CN1CCC(c3cccc(OCc4ccc(Cl)cc4F)n3)CC1)n2C[C@@H]1CCO1 [Compound 64] |
| 1.75 | C[C@@H](NC(=O)c1ccc2c(c1)nc(CN1CCC(c3cccc(OCc4ccc(Cl)cc4F)n3)CC1)n2C[C@@H]1CCO1)C(=O)N1C[C@@H](O)C[C@@H]1C(=O)O [Compound 65] |
| 1.41 | C[C@H](NC(=O)c1ccc2c(c1)nc(CN1CCC(c3cccc(OCc4ccc(Cl)cc4F)n3)CC1)n2C[C@@H]1CCO1)C(=O)N1CC(F)(F)C[C@H]1C(=O)O [Compound 66] |
| 5.89 | O=C(NCC(=O)N1C[C@@H](O)[C@@H](O)C1)c1ccc2c(c1)nc(CN1CCC(c3cccc(OCc4ccc(Cl)cc4F)n3)CC1)n2C[C@@H]1CCO1 [Compound 67] |
| 142 | COC(=O)[C@@H]1CC(F)(F)CN1C(=O)[C@H](C)NC(=O)c1ccc2c(c1)nc(CN1CCC(c3cccc(OCc4ccc(Cl)cc4F)n3)CC1)n2C[C@@H]1CCO1 [Compound 68] |
| 70.5 | COC(=O)[C@@H]1CC(F)(F)CN1C(=O)CNC(=O)c1ccc2c(c1)nc(CN1CC=C(c3cccc(OCc4ccc(Cl)cc4F)n3)CC1)n2C[C@@H]1CCO1 [Compound 69] |
| 1.9 | O=C(NCC(=O)N1CC[C@H](O)C1)c1ccc2c(c1)nc(CN1CCC(c3cccc(OCc4ccc(Cl)cc4F)n3)CC1)n2C[C@@H]1CCO1 [Compound 70] |
| 132 | COC(=O)[C@@H]1CC(F)(F)CN1C(=O)[C@H](C)NC(=O)c1ccc2c(c1)nc(CN1CC=C(c3cccc(OCc4ccc(Cl)cc4F)n3)CC1)n2C[C@@H]1CCO1 [Compound 71] |

| EC50 [nM] | Structure (SMILES) |
| --- | --- |
| 0.61 | O=C(NCC(=O)N1CC(F)(F)C[C@H]1C(=O)O)c1ccc2c(c1)nc(CN1CC=C(c3cccc(OCc4ccc(Cl)cc4F)n3)CC1)n2C[C@@H]1CCO1 [Compound 72] |
| 0.52 | C[C@H](NC(=O)c1ccc2c(c1)nc(CN1CC=C(c3cccc(OCc4ccc(Cl)cc4F)n3)CC1)n2C[C@@H]1CCO1)C(=O)N1CC(F)(F)C[C@H]1C(=O)O [Compound 73] |
| > 10000 | COC(=O)C1CC(N(C)C)CN1C(=O)[C@H](C)NC(=O)c1ccc2c(c1)nc(CN1CCC(c3cccc(OCc4ccc(Cl)cc4F)n3)CC1)n2C[C@@H]1CCO1 (some centres unmarked) [Compound 74] |
| > 10000 | COCCn1c(CN2CCC(c3cccc(OCc4ccc(Cl)cc4F)n3)CC2)nc2cc(C(=O)Nc3ccc(O)cc3)ccc21 [Compound 75] |
| 9.04 | O=C(NCc1ccc2[nH][nH]c(=O)c2c1)c1ccc2c(c1)nc(CN1CCC(c3cccc(OCc4ccc(Cl)cc4F)n3)CC1)n2C[C@@H]1CCO1 [Compound 76] |
| 1.9 | O=C(NCC(=O)N1CC[C@@H](O)C1)c1ccc2c(c1)nc(CN1CCC(c3cccc(OCc4ccc(Cl)cc4F)n3)CC1)n2C[C@@H]1CCO1 [Compound 77] |
| 23.1 | Nc1ncc2c(ncn2C(=O)c2ccc3c(c2)nc(CN2CCC(c4cccc(OCc5ccc(Cl)cc5F)n4)CC2)n3C[C@@H]2CCO2)n1 [Compound 78] |
| 76.5 | Cc1n[nH]c2ncc(NC(=O)c3ccc4c(c3)nc(CN3CCC(c5cccc(OCc6ccc(Cl)cc6F)n5)CC3)n4C[C@@H]3CCO3)cc12 [Compound 79] |
| 14.5 | COc1n[nH]c2ccc(NC(=O)c3ccc4c(c3)nc(CN3CCC(c5cccc(OCc6ccc(Cl)cc6F)n5)CC3)n4C[C@@H]3CCO3)cc12 [Compound 81] |
| 116 | N#Cc1n[nH]c2ccc(NC(=O)c3ccc4c(c3)nc(CN3CCC(c5cccc(OCc6ccc(Cl)cc6F)n5)CC3)n4C[C@@H]3CCO3)cc12 [Compound 82] |
| 3.76 | CC(C)c1n[nH]c2ccc(NC(=O)c3ccc4c(c3)nc(CN3CCC(c5cccc(OCc6ccc(Cl)cc6F)n5)CC3)n4C[C@@H]3CCO3)cc12 [Compound 83] |
| 17.9 | O=C(Nc1ccc2[nH]c(=O)cnc2c1)c1ccc2c(c1)nc(CN1CCC(c3cccc(OCc4ccc(Cl)cc4F)n3)CC1)n2C[C@@H]1CCO1 [Compound 84] |
| 0.75 | O=C(Nc1ccc2c(c1)C1(CC1)C(=O)N2)c1ccc2c(c1)nc(CN1CCC(c3cccc(OCc4ccc(Cl)cc4F)n3)CC1)n2C[C@@H]1CCO1 [Compound 86] |
| 10.1 | O=C(Nc1ccc2[nH]ncc2c1)c1ccc2c(c1)nc(CN1CCC(c3cccc(OCc4ccc(Cl)cc4F)n3)CC1)n2C[C@@H]1CCO1 [Compound 87] |
| 87.8 | O=C(Nc1ncc2[nH]cnc2n1)c1ccc2c(c1)nc(CN1CCC(c3cccc(OCc4ccc(Cl)cc4F)n3)CC1)n2C[C@@H]1CCO1 [Compound 89] |
| 26.2 | Cn1c(=O)[nH]c2ccc(NC(=O)c3ccc4c(c3)nc(CN3CCC(c5cccc(OCc6ccc(Cl)cc6F)n5)CC3)n4C[C@@H]3CCO3)cc21 [Compound 91] |
| 18.6 | O=C(Nc1cc2[nH]c(=O)[nH]c2cc1F)c1ccc2c(c1)nc(CN1CCC(c3cccc(OCc4ccc(Cl)cc4F)n3)CC1)n2C[C@@H]1CCO1 [Compound 92] |
| 29.8 | O=C(Nc1ccc2[nH]c(=O)[nH]c2n1)c1ccc2c(c1)nc(CN1CCC(c3cccc(OCc4ccc(Cl)cc4F)n3)CC1)n2C[C@@H]1CCO1 [Compound 93] |
| 372 | Cc1n[nH]c2cc(NC(=O)c3ccc4c(c3)nc(CN3CCC(c5cccc(OCc6ccc(Cl)cc6F)n5)CC3)n4C[C@@H]3CCO3)ccc12 [Compound 94] |
| 62 | Cc1nc2ccc(NC(=O)c3ccc4c(c3)nc(CN3CCC(c5cccc(OCc6ccc(Cl)cc6F)n5)CC3)n4C[C@@H]3CCO3)cc2s1 [Compound 95] |
| 74.3 | O=C(Nc1ccn2nccc2c1)c1ccc2c(c1)nc(CN1CCC(c3cccc(OCc4ccc(Cl)cc4F)n3)CC1)n2CC1CCO1 (centres unmarked) [Compound 96] |
| 140 | O=C(Nc1ccn2ncc(Cl)c2c1)c1ccc2c(c1)nc(CN1CCC(c3cccc(OCc4ccc(Cl)cc4F)n3)CC1)n2CC1CCO1 (centres unmarked) [Compound 97] |
